ChEMBL document CHEMBL4483862, “Open-source discovery of chemical leads for next-generation chemoprotective antimalarials” (2018)

Test system: Plasmodium berghei
Assay: Luciferase/luciferin-expressing antifolate-resistant parasites were used to infect a culture of HepG2 cells that were pre-incubated with compounds. Infected hepatocytes emit light due to the luciferase reaction. Assay results are presented as the percent inhibition of light emission compared to control. […]
Format: functional
Settings: sporozoite; for IC90: read-out: LUCIFERASE INFECTION ASSAY - IC90
[1] = read-out: LUCIFERASE INFECTION ASSAY - IC50

SMILES | IC90 | IC50 [1] | other results
Cn1c(Nc2cccc(C(F)(F)F)c2)nc2cnc(-c3ccc(N)nc3)cc21 | > 10 µM | – | IC50 (PBLUC_HILL_SLOPE 1.84, PBLUC_R_SQUARED 0.0919, read-out: LUCIFERASE INFECTION ASSAY - IC50): > 10 µM
COc1ccc(Cl)cc1C(=O)NCCC(c1ccccc1)c1ccccc1 | > 8.69 µM | – | IC50 (HEPG2TOX_HILL_SLOPE 6.56, HEPG2TOX_R_SQUARED 0.368, PBLUC_HILL_SLOPE 3.72, PBLUC_R_SQUARED 0.314, read-out: LUCIFERASE INFECTION ASSAY - IC50): 5.39 µM
CC(C)(C)Nc1ccn2nc(-c3ccco3)cc2n1 | > 12.9 µM | – | IC50 (PBLUC_HILL_SLOPE 2.89, PBLUC_R_SQUARED 0.538, read-out: LUCIFERASE INFECTION ASSAY - IC50): 8.49 µM
COc1ccc(O)c(C(=O)c2cnc(Nc3nc(C)c4ccccc4n3)nc2)c1 | > 10 µM | – | IC50 (FFLUC_HILL_SLOPE 8.56, FFLUC_R_SQUARED 0.251, read-out: LUCIFERASE INFECTION ASSAY - IC50): > 10 µM
Cc1cc2oc(=O)cc(Cn3cnc([N+](=O)[O-])c3)c2cc1C | > 10 µM | – | IC50 (PBLUC_HILL_SLOPE 0.353, PBLUC_R_SQUARED 0.0201, read-out: LUCIFERASE INFECTION ASSAY - IC50): > 10 µM
Cn1ccnc1Sc1c[nH]c(=S)nc1-c1ccc(Cl)cc1 | 9.04 µM | – | IC50 (FFLUC_HILL_SLOPE 122, FFLUC_R_SQUARED 0.312, PBLUC_HILL_SLOPE 4.61, PBLUC_R_SQUARED 0.38, read-out: LUCIFERASE INFECTION ASSAY - IC50): 5.61 µM
COc1ccc(C(N)=O)c(OCC(=O)c2cc(C)n(Cc3ccccc3)c2C)c1 | 9.51 µM | – | IC50 (HEPG2TOX_HILL_SLOPE 1.79, HEPG2TOX_R_SQUARED 0.962, PBLUC_HILL_SLOPE 4.42, PBLUC_R_SQUARED 0.333, read-out: LUCIFERASE INFECTION ASSAY - IC50): 5.78 µM
CC1CCN(CCCCOc2cccc(Cl)c2)CC1 | > 10 µM | > 10 µM | –
O=C(CCc1nc2ccccc2n(CCc2ccccc2)c1=O)N1CCC1 | > 10 µM | > 10 µM | –
N#Cc1cc(NC(=O)c2ccc(F)cc2)ccc1Sc1cccc(C(F)(F)F)c1 | > 7.93 µM | 3.07 µM | –
CC(C)c1ccc(OCC(=O)NC2CCCCCCC2)cc1 | > 10.9 µM | – | IC50 (PBLUC_HILL_SLOPE 1.5, PBLUC_R_SQUARED 0.0788, read-out: LUCIFERASE INFECTION ASSAY - IC50): > 10.9 µM
CCOc1ccc(N2C(=O)c3ccccc3C(C=NNc3ccc(S(=O)(=O)N(CC)CC)cc3[N+](=O)[O-])C2=O)cc1 (stereo not drawn) | > 10 µM | > 10 µM | –
CN1C/C(=C\c2ccccc2)C(=O)/C(=C/c2ccccc2)C1 | > 11.4 µM | > 11.4 µM | –
Cc1c(Cl)cccc1N=C(SCC(=O)N(C)C1CCCCC1)C(C#N)c1nc2ccccc2s1 (stereo not drawn) | > 10 µM | > 10 µM | –
N#CC1C(=N)Oc2c3c(c4ccccc4c2C1c1ccc(F)cc1)C(c1ccc(F)cc1)C(C#N)C(=N)O3 (stereo not drawn) | > 6.54 µM | – | IC50 (FFLUC_HILL_SLOPE 11.1, FFLUC_R_SQUARED 0.748, PBLUC_HILL_SLOPE 2.09, PBLUC_R_SQUARED 0.0277, read-out: LUCIFERASE INFECTION ASSAY - IC50): 4.45 µM
COc1ccc(C(=O)OCC(=O)Nc2sccc2C(N)=O)cc1S(=O)(=O)N1CCCCC1C (stereo not drawn) | > 10 µM | – | IC50 (HEPG2TOX_HILL_SLOPE 5.31, HEPG2TOX_R_SQUARED 0.826, PBLUC_HILL_SLOPE 1.98, PBLUC_R_SQUARED 0.24, read-out: LUCIFERASE INFECTION ASSAY - IC50): 5.17 µM
CN1CCN(c2ccccc2NC(=O)c2cccc(Oc3ccccc3)c2)CC1 | 5.25 µM | – | IC50 (PBLUC_HILL_SLOPE 1.09, PBLUC_R_SQUARED 0.715, read-out: LUCIFERASE INFECTION ASSAY - IC50): 0.704 µM
Cc1nnc(SCCCc2nc(-c3ccncc3)no2)n1Cc1ccccc1 | > 10 µM | > 10 µM | –
O=C(/C=N/Nc1ncc(C(F)(F)F)cc1Cl)c1ccccn1 | > 10 µM | – | IC50 (PBLUC_HILL_SLOPE 3.06, PBLUC_R_SQUARED 0.0968, read-out: LUCIFERASE INFECTION ASSAY - IC50): 8.78 µM
COc1ccccc1N(C)S(=O)(=O)c1ccc(C)c(C(=O)Nc2nc3ccccc3s2)c1 | 8.14 µM | – | IC50 (PBLUC_HILL_SLOPE 17.5, PBLUC_R_SQUARED 0.446, read-out: LUCIFERASE INFECTION ASSAY - IC50): 7.18 µM
O=C(Cn1nnc(-c2ccccc2)n1)N/N=C/c1c(O)ccc2ccccc12 | > 10 µM | – | IC50 (HEPG2TOX_HILL_SLOPE 16.4, HEPG2TOX_R_SQUARED 0.547, PBLUC_HILL_SLOPE 10.9, PBLUC_R_SQUARED 0.367, read-out: LUCIFERASE INFECTION ASSAY - IC50): 8.32 µM
Cc1cc(C(=O)OCC(=O)c2ccc[nH]2)c2c(C)noc2n1 | > 10 µM | > 10 µM | –

SMILES | IC90 | IC50 [1] | other results
Cc1ccc(Cn2nc(C)c(/C=N/NC(=O)c3ccccc3NS(=O)(=O)c3cccs3)c2C)cc1 | > 10 µM | > 10 µM | –
CCOc1ccc(S(=O)(=O)Nc2cccc(C(=O)N3CCN(c4ccccn4)CC3)c2)cc1 | > 10 µM | > 10 µM | –
COc1ccc(OC)c(S(=O)(=O)N2[C@@H]3CC[C@@H](C3)[C@H]2c2nc3cccc(OCc4ccc(F)cc4)c3[nH]2)c1 | > 10 µM | > 10 µM | –
Cc1cc(C)c(S(=O)(=O)N2CCN(C(=O)/C(=C/c3cccc(F)c3)n3nnnc3C)CC2)c(C)c1 | 3.73 µM | 1.61 µM | –
O=C(O)COc1cc(-c2ccccc2)nc2ccccc12 | 4.53 µM | – | IC50 (HEPG2TOX_HILL_SLOPE 2.22, HEPG2TOX_R_SQUARED 0.747, PBLUC_HILL_SLOPE 12.7, PBLUC_R_SQUARED 0.342, read-out: LUCIFERASE INFECTION ASSAY - IC50): 3.81 µM
Cc1noc2nc(C(C)C)cc(C(=O)Nc3nc4ccccc4[nH]3)c12 | > 10 µM | > 10 µM | –
O=C(c1cccs1)N1CCN(Cc2csc(C3CCCCC3)n2)CC1 | > 10 µM | – | IC50 (HEPG2TOX_HILL_SLOPE 7.59, HEPG2TOX_R_SQUARED 0.857, PBLUC_HILL_SLOPE 2.36, PBLUC_R_SQUARED 0.0477, read-out: LUCIFERASE INFECTION ASSAY - IC50): 5.47 µM
Cc1nn(-c2ccccn2)c2nc(-c3ccc4c(c3)OCO4)ccc12 | > 10 µM | – | IC50 (HEPG2TOX_HILL_SLOPE 2.11, HEPG2TOX_R_SQUARED 0.932, read-out: LUCIFERASE INFECTION ASSAY - IC50): > 10 µM
c1ccn(C2CCNCC2)c1 | > 22 µM | > 22 µM | –
c1ccc(Oc2cccc(-c3ccc4nnc(-c5ccccc5)n4c3)c2)cc1 | > 10 µM | > 10 µM | –
O=C(Nc1ccc(OCc2ccccc2)cc1)C1=COC2=NC(=O)N(Cc3cccc(Cl)c3)CCN12 | 4.47 µM | – | IC50 (HEPG2TOX_HILL_SLOPE 2.27, HEPG2TOX_R_SQUARED 0.429, PBLUC_HILL_SLOPE 8.12, PBLUC_R_SQUARED 0.376, read-out: LUCIFERASE INFECTION ASSAY - IC50): 3.41 µM
COc1ccc(Br)cc1/C=C/C(=O)c1ccc(OCC#N)cc1 | > 10 µM | – | IC50 (PBLUC_HILL_SLOPE 7.84, PBLUC_R_SQUARED 0.11, read-out: LUCIFERASE INFECTION ASSAY - IC50): 9.52 µM
Cc1cc(C2N=C(N)Nc3nc4ccccc4n32)c(C)n1-c1ccccc1Cl (stereo not drawn) | 7.59 µM | – | IC50 (PBLUC_HILL_SLOPE 3.33, 1.30, PBLUC_R_SQUARED 0.920, 0.833, read-out: LUCIFERASE INFECTION ASSAY - IC50): 3.92 µM
COc1cc(F)c(S(=O)(=O)N2CCCc3cc(F)cc(F)c32)cc1OC | > 10 µM | – | IC50 (PBLUC_HILL_SLOPE 2.81, PBLUC_R_SQUARED 0.427, read-out: LUCIFERASE INFECTION ASSAY - IC50): 6.52 µM
N#CC(C(=O)COC(=O)c1nc(-c2ccccc2)n(-c2ccccc2)n1)=C1Nc2ccccc2N1 | > 10 µM | > 10 µM | –
CCc1cccc2c(C3=NNC(=Nc4ccc(S(=O)(=O)N5CCOCC5)cc4)SC3)c[nH]c12 | > 10 µM | – | IC50 (HEPG2TOX_HILL_SLOPE 14.9, HEPG2TOX_R_SQUARED 0.843, PBLUC_HILL_SLOPE 3.05, PBLUC_R_SQUARED 0.104, read-out: LUCIFERASE INFECTION ASSAY - IC50): 5.65 µM
CCCN(CCC)S(=O)(=O)c1ccc(-n2ncc(Cl)c(Cl)c2=O)cc1 | 2.67 µM | – | IC50 (FFLUC_HILL_SLOPE 2.22, FFLUC_R_SQUARED 0.495, HEPG2TOX_HILL_SLOPE 4.03, HEPG2TOX_R_SQUARED 0.969, PBLUC_HILL_SLOPE 5.8, PBLUC_R_SQUARED 0.662, read-out: LUCIFERASE INFECTION ASSAY - IC50): 1.83 µM
Nc1ccc(-c2cn3c(-c4ccc(Oc5ccccc5)cc4)cnc3cn2)cn1 | > 8.7 µM | – | IC50 (HEPG2TOX_HILL_SLOPE 7.27, HEPG2TOX_R_SQUARED 0.167, PBLUC_HILL_SLOPE 11.9, PBLUC_R_SQUARED 0.186, read-out: LUCIFERASE INFECTION ASSAY - IC50): 7.28 µM
COc1cccc(CNC(=S)SCC(=O)C(C)(C)C)c1 | > 10.6 µM | > 10.6 µM | –
Clc1nc2ccccc2cc1/C=N/Cc1ccc2c(c1)OCO2 | > 10 µM | > 10 µM | –
O=C(Nc1ncc(Cc2ccccc2Br)s1)c1ccc2nc[nH]c2c1 | > 10 µM | – | IC50 (HEPG2TOX_HILL_SLOPE 2.12, HEPG2TOX_R_SQUARED 0.698, PBLUC_HILL_SLOPE 2.32, PBLUC_R_SQUARED 0.476, read-out: LUCIFERASE INFECTION ASSAY - IC50): 4.08 µM
CC(=O)OC1CCC2(C)C(CCC3C4CCC(C(C)C(=O)OCC(=O)c5ccccc5)C4(C)CC(=O)C32)C1 (stereo not drawn) | 0.271 µM | – | IC50 (HEPG2TOX_HILL_SLOPE 12.9, HEPG2TOX_R_SQUARED 0.919, PBLUC_HILL_SLOPE 10.6, PBLUC_R_SQUARED 0.537, read-out: LUCIFERASE INFECTION ASSAY - IC50): 0.22 µM
